{"source": "patent US20240342175A1", "about": "“Compositions and Methods for Treating Spinal Cord Injury and Synaptic Dysfunction” (priority 2021, published 2024)", "key": {"[1]": {"system": "Fmr1 knock-out mice", "assay": "Open field / hyperactivity in Fmr1 knock-out mice", "type": "in vivo", "design": "key: X indicates failure to ameliorate the phenotype; Y reversed the phenotype", "settings": "repeat experiment, 15 days", "protocol": "(§1) Fmr1 knock-out mice (n=10) were orally administered 10 mg/kg/day or 100 mg/kg/day belumosudil or vehicle (BID) for 15 days. Control groups included wild type mice and knock out mice with vehicle. Mice treated with 100 mg/kg belumosudil ameliorated the following behavioral phenotypes: open field/hyperactivity, self-grooming/stereotypy, hyponeophagia/anxiety, nesting/test of daily living, 3-chamber social novelty/sociability; resident intruder and fear conditioning.\n(§2) The experiment was repeated where knock out mice received belumosudil at 20 mg/kg/day, 60 mg/kg/day and 100 mg/kg/day (BID) for 15 days. One group of knock out mice received 10 mg/kg/day belumosudil in combination with 10 mg/kg/day minocycline for 15 days. Control groups included wild type mice and knock out mice with vehicle. The results are set forth below, where X indicates failure to ameliorate the phenotype and Y reversed the phenotype: […]"}, "[2]": {"system": "Fmr1 knock-out mice", "assay": "Self-grooming / stereotypy in Fmr1 knock-out mice", "type": "in vivo", "design": "key: X indicates failure to ameliorate the phenotype; Y reversed the phenotype", "settings": "repeat experiment, 15 days", "protocol": "as §1, §2"}, "[3]": {"system": "Fmr1 knock-out mice", "assay": "Hyponeophagia / anxiety in Fmr1 knock-out mice", "type": "in vivo", "design": "key: X indicates failure to ameliorate the phenotype; Y reversed the phenotype", "settings": "repeat experiment, 15 days", "protocol": "as §1, §2"}, "[4]": {"system": "Fmr1 knock-out mice", "assay": "Nesting / test of daily living in Fmr1 knock-out mice", "type": "in vivo", "design": "key: X indicates failure to ameliorate the phenotype; Y reversed the phenotype", "settings": "repeat experiment, 15 days", "protocol": "as §1, §2"}, "[5]": {"system": "Fmr1 knock-out mice", "assay": "Novel object recognition / cognition in Fmr1 knock-out mice", "type": "in vivo", "design": "key: X indicates failure to ameliorate the phenotype; Y reversed the phenotype", "settings": "repeat experiment, 15 days", "protocol": "as §1, §2"}, "[6]": {"system": "Fmr1 knock-out mice", "assay": "3-chamber social novelty / sociability in Fmr1 knock-out mice", "type": "in vivo", "design": "key: X indicates failure to ameliorate the phenotype; Y reversed the phenotype", "settings": "repeat experiment, 15 days", "protocol": "as §1, §2"}, "[7]": {"system": "Fmr1 knock-out mice", "assay": "Resident intruder in Fmr1 knock-out mice", "type": "in vivo", "design": "key: X indicates failure to ameliorate the phenotype; Y reversed the phenotype", "settings": "repeat experiment, 15 days", "protocol": "as §1, §2"}, "[8]": {"system": "Fmr1 knock-out mice", "assay": "Fear conditioning in Fmr1 knock-out mice", "type": "in vivo", "design": "key: X indicates failure to ameliorate the phenotype; Y reversed the phenotype", "settings": "repeat experiment, 15 days", "protocol": "as §1, §2"}, "[9]": {"settings": "cited from earlier work"}, "[10]": {"settings": "belumosudil 100 mg/kg/day (BID)"}}, "note": "Where two headings read alike, the source gives them in different places.", "data": [{"smiles": "CC(C)NC(=O)COc1cccc(-c2nc(Nc3ccc4[nH]ncc4c3)c3ccccc3n2)c1", "note": "[belumosudil]", "values": [{"measurement": "Open Field: Hyperactivity", "setting": "[1]; belumosudil 20 mg/kg/day (BID)", "result": "X"}, {"measurement": "Open Field: Hyperactivity", "setting": "[1]; belumosudil 60 mg/kg/day (BID)", "result": "X"}, {"measurement": "Open Field: Hyperactivity", "setting": "[1]; [10]", "result": "Y"}, {"measurement": "Self-Grooming: Stereotypy", "setting": "[2]; belumosudil 20 mg/kg/day (BID)", "result": "X"}, {"measurement": "Self-Grooming: Stereotypy", "setting": "[2]; belumosudil 60 mg/kg/day (BID)", "result": "X"}, {"measurement": "Self-Grooming: Stereotypy", "setting": "[2]; [10]", "result": "Y"}, {"measurement": "Hyponeophagia: Anxiety", "setting": "[3]; belumosudil 20 mg/kg/day (BID)", "result": "X"}, {"measurement": "Hyponeophagia: Anxiety", "setting": "[3]; belumosudil 60 mg/kg/day (BID)", "result": "X"}, {"measurement": "Hyponeophagia: Anxiety", "setting": "[3]; [10]", "result": "Y"}, {"measurement": "Nesting: Test of Daily Living", "setting": "[4]; belumosudil 20 mg/kg/day (BID)", "result": "Y"}, {"measurement": "Nesting: Test of Daily Living", "setting": "[4]; belumosudil 60 mg/kg/day (BID)", "result": "Y"}, {"measurement": "Nesting: Test of Daily Living", "setting": "[4]; [10]", "result": "Y"}, {"measurement": "Novel Object Recognition: Cognition", "setting": "[5]; belumosudil 20 mg/kg/day (BID)", "result": "X"}, {"measurement": "Novel Object Recognition: Cognition", "setting": "[5]; belumosudil 60 mg/kg/day (BID)", "result": "X"}, {"measurement": "Novel Object Recognition: Cognition", "setting": "[5]; [10]", "result": "X"}, {"measurement": "3 Chamber Social Novelty: Sociability", "setting": "[6]; belumosudil 20 mg/kg/day (BID)", "result": "X"}, {"measurement": "3 Chamber Social Novelty: Sociability", "setting": "[6]; belumosudil 60 mg/kg/day (BID)", "result": "X"}, {"measurement": "3 Chamber Social Novelty: Sociability", "setting": "[6]; [10]", "result": "Y"}, {"measurement": "Resident Intruder", "setting": "[7]; belumosudil 20 mg/kg/day (BID)", "result": "X"}, {"measurement": "Resident Intruder", "setting": "[7]; belumosudil 60 mg/kg/day (BID)", "result": "Y"}, {"measurement": "Resident Intruder", "setting": "[7]; [10]", "result": "Y"}, {"measurement": "Fear Conditioning", "setting": "[8]; belumosudil 20 mg/kg/day (BID)", "result": "X"}, {"measurement": "Fear Conditioning", "setting": "[8]; belumosudil 60 mg/kg/day (BID)", "result": "Y"}, {"measurement": "Fear Conditioning", "setting": "[8]; [10]", "result": "Y"}, {"measurement": "AE: cough", "setting": "[9]; 200 mg once daily (QD) arm", "result": 18}, {"measurement": "AE: diarrhea", "setting": "[9]; 200 mg once daily (QD) arm", "result": 24, "unit": "%"}, {"measurement": "AE: dyspnea", "setting": "[9]; 200 mg once daily (QD) arm", "result": 20, "unit": "%"}, {"measurement": "AE: edema", "setting": "[9]; 200 mg once daily (QD) arm", "result": 24, "unit": "%"}, {"measurement": "AE: fatigue", "setting": "[9]; 200 mg once daily (QD) arm", "result": 30, "unit": "%"}, {"measurement": "AE: liver related investigations", "setting": "[9]; 200 mg once daily (QD) arm", "result": 20, "unit": "%"}, {"measurement": "AE: nausea", "setting": "[9]; 200 mg once daily (QD) arm", "result": 23, "unit": "%"}, {"measurement": "Serious AE: nausea", "setting": "[9]; 200 mg once daily (QD) arm", "result": 3, "unit": "%"}, {"measurement": "Serious AE: pneumonia", "setting": "[9]; 200 mg once daily (QD) arm", "result": 3, "unit": "%"}, {"measurement": "Serious AE: pyrexia", "setting": "[9]; 200 mg once daily (QD) arm", "result": 5, "unit": "%"}, {"measurement": "Serious AE: vomiting", "setting": "[9]; 200 mg once daily (QD) arm", "result": 3, "unit": "%"}, {"measurement": "AE: cough", "setting": "[9]; 200 mg twice daily (BID) arm", "result": 14, "unit": "%"}, {"measurement": "AE: diarrhea", "setting": "[9]; 200 mg twice daily (BID) arm", "result": 18, "unit": "%"}, {"measurement": "AE: dyspnea", "setting": "[9]; 200 mg twice daily (BID) arm", "result": 12, "unit": "%"}, {"measurement": "AE: edema", "setting": "[9]; 200 mg twice daily (BID) arm", "result": 15, "unit": "%"}, {"measurement": "AE: fatigue", "setting": "[9]; 200 mg twice daily (BID) arm", "result": 18, "unit": "%"}, {"measurement": "AE: liver related investigations", "setting": "[9]; 200 mg twice daily (BID) arm", "result": 23, "unit": "%"}, {"measurement": "AE: nausea", "setting": "[9]; 200 mg twice daily (BID) arm", "result": 20, "unit": "%"}, {"measurement": "Serious AE: nausea", "setting": "[9]; 200 mg twice daily (BID) arm", "result": 2, "unit": "%"}, {"measurement": "Serious AE: pneumonia", "setting": "[9]; 200 mg twice daily (BID) arm", "result": 3, "unit": "%"}, {"measurement": "Serious AE: pyrexia", "setting": "[9]; 200 mg twice daily (BID) arm", "result": 0}, {"measurement": "Serious AE: vomiting", "setting": "[9]; 200 mg twice daily (BID) arm", "result": 2, "unit": "%"}, {"measurement": "safety and efficacy in clinical trial", "setting": "[9]; 132 patients, 200 mg QD or 200 mg BID", "result": "safe and efficacious"}]}]}
